The subject of one series is P. falciparum 3D7 strain. Description: SYBR Green I antimalarial activity, P. falciparum 3D7. It counts as cell-based, Plasmodium falciparum. To be noted: read-out: IC50 P. faldparum 3D7. As for the experimental part: (§1) In an embodiment, hierridin B and hierridin C were tested for in vitro activity towards the P. falciparum strains, in particular P. falciparum 3D7 strain and the multidrug-resistant Dd2 strain to verify whether the chlorine atom featured in hierridin C affects the activity of the compound, in particular the antimalarial activity.
In an embodiment, the laboratory-adapted P. falciparum 3D7 and Dd2 strains were cultivated on human erythrocytes suspended in RPMI 1640 medium supplemented with 25 mM HEPES, 6.8 mM hypoxanthine and 10% AlbuMAX II (Life Technologies, Carlsbad, Calif., USA), at pH 7.2. […] Staging and parasitaemia were determined by light microscopy of Giemsa-stained thin blood smears.
(§2) In an embodiment, the antimalarial activities of hierridin B and hierridin C were determined using the SYBR Green I (Life Technologies). Early ring stage parasites were tested in triplicate in a 96-well plate and incubated with drugs for 48 h (37° C., 5% CO2), parasite growth was assessed with SYBR Green I. Each compound was tested in a concentration ranging from 10-0.0097 μM (0.2% DMSO). Fluorescence intensity was measured with a multi-mode microplate reader (Triad, Dynex, Chantilly, Va., USA) with excitation and emission wavelengths of 485 nm and 535 nm, respectively, and analyzed by nonlinear regression using GraphPad Prism 5 (GraphPad Software, La Jolla, Calif., USA).

For series [1], the system named is HT-29 colon adenocarcinoma human cells. The settings on record: cited from earlier work.
For series [2], the system named is P. falciparum multidrug-resistant Dd2 strain. Description: microbe, parasite or virus in culture. The series is classed as cell-based, Plasmodium falciparum. The procedure:
as §1
In an embodiment, the laboratory-adapted P. falciparum 3D7 and Dd2 strains were cultivated on human erythrocytes suspended in RPMI 1640 medium supplemented with 25 mM HEPES, 6.8 mM hypoxanthine and 10% AlbuMAX II (Life Technologies, Carlsbad, Calif., USA), at pH 7.2. Cultures were maintained at 37° C. under an atmosphere of 5% O2, 3-5% CO2 and N2, and synchronized by sorbitol treatment prior to the assays. Staging and parasitaemia were determined by light microscopy of Giemsa-stained thin blood smears.
as §2

For another series, the system named is neuroblastoma SH-SY5Y. As to the kind of experiment: Cytotoxicity, cell lines exposed to hierridin C. It counts as cell-based. The settings on record: up to 30 μg mL−1 (75.2 μM). As for the experimental part: (§3) In an embodiment, several cell lines were exposed to hierridin C, in particular to a concentration of hierridin C up to 30 μg mL^−1 (75.2 μM). The cell lines exposed to hierridin C, were in particular the cell lines of hepatocellular carcinoma HepG2, colon adenocarcinoma HT-29, neuroblastoma SH-SY5Y, breast carcinoma T47D, normal prostate cell line PNT2, breast adenocarcinoma, RKO colon carcinoma and MG-63 osteosarcoma.

Series [3] relates to normal prostate cell line PNT2. As to the kind of experiment: Cytotoxicity, cell lines exposed to hierridin C. The series is classed as cell-based. The settings on record: PNT2, up to 30 μg mL−1 (75.2 μM). As for the experimental part: as §3
The subject of a further series is RKO colon carcinoma. As to the kind of experiment: Cytotoxicity, cell lines exposed to hierridin C. It counts as cell-based. To be noted: up to 30 μg mL−1 (75.2 μM). The procedure: as §3
In a further series the test system is breast carcinoma T47D. As to the kind of experiment: Cytotoxicity, cell lines exposed to hierridin C. The series is classed as cell-based. The settings on record: up to 30 μg mL−1 (75.2 μM). As for the experimental part: as §3
In series [4] the test system is hepatocellular carcinoma HepG2. As to the kind of experiment: Cytotoxicity, cell lines exposed to hierridin C. It counts as cell-based. To be noted: HepG2, up to 30 μg mL−1 (75.2 μM). As for the experimental part:
as §3

The test system of the next series is MG-63 osteosarcoma. Description: Cytotoxicity, cell lines exposed to hierridin C. The series is classed as cell-based. The settings on record: MG-63, up to 30 μg mL−1 (75.2 μM). As for the experimental part:
as §3

For another series, the system named is breast adenocarcinoma. As to the kind of experiment: Cytotoxicity, cell lines exposed to hierridin C. The series is classed as cell-based. To be noted: up to 30 μg mL−1 (75.2 μM). The procedure: as §3
Series [5] relates to colon adenocarcinoma HT-29. As to the kind of experiment: Cytotoxicity, cell lines exposed to hierridin C. It counts as cell-based, human. To be noted: HT-29, up to 30 μg mL−1 (75.2 μM). As for the experimental part:
as §3

SMILES strings stand for the structures. Where two headings read alike, the source gives them in different places. Where only a bound is given, the exact number is not on record here.

In general, IC50 refers to the concentration that gives 50% inhibition. Take `CCCCCCCCCCCCCCCc1cc(OC)cc(OC)c1O` [Hierridin B, reference compound]: the concentration for half-maximal inhibition (IC50) in the series with P. falciparum 3D7 strain (3D7 strain (sensitive to chloroquine), 48 h incubation, SYBR Green I) is 2090 ± 80 nM; in series [2] (Dd2 strain (resistant to chloroquine and mefloquine), 48 h incubation, SYBR Green I, read-out: IC50 P. faldparum Dd2) it was 2250 ± 670 nM. Further, the “cytotoxicity towards HT-29” value in series [1] is recorded as “modest, selective cytotoxicity”.
Take `CCCCCCCCCCCCCCCc1c(O)c(OC)cc(OC)c1Cl` [Hierridin C, 3-chloro-4,6-dimethoxy-2-pentadecylphenol]: the IC50 in the series on P. falciparum 3D7 strain (Plasmodium falciparum, 3D7, 48 h) is 1520 ± 50 nM; in series [2] (Plasmodium falciparum, DD2, 48 h, read-out: IC50 P. faldparum Dd2), 2310 ± 110 nM; in series [2] (Plasmodium falciparum, DD2, read-out: IC50 in P. falciparum strains), about 2000 nM. Further, the cytotoxicity entry (in the series on neuroblastoma SH-SY5Y; in series [3]; in the series with RKO colon carcinoma; in the series on breast carcinoma T47D; in series [4]; in the series with MG-63 osteosarcoma) was “No cytotoxicity was observed” in each case. Further, the cytotoxicity entry (in the series on breast adenocarcinoma; in series [5]) was “No cytotoxicity was observed” each time. The “Resistance indices (RI)” value in [2] (Dd2 versus 3D7) is 0.93. Also, in series [2] (relative to IC50 in P. falciparum strains), the therapeutical index result is recorded as “>= 50”.

These data come from patent publication US10287228B2, “Antimalarial agent, methods and uses thereof” (UNIVERSIDADE DO PORTO, priority 2015, dated 2019).
